Consider 3 molecules from patent US9389237B2, “Methods for inhibiting the development of Huntington's disease” (priority 2003, dated 2016).

The test system of data set [1] is HD transgenic mice (HDexon 1 + 159-161 CAG repeat units). The data set is described as follows: Body weight of hormone treated HD transgenic mice. As to conditions: for Last wt Week 12 / Peak wt Weeks 8/9 / % change in weight / Change in Grams / % change: single animals; for Average % change: group average weight loss; for % change in weight / Change in Grams / % change: peak to week 12. The format is in vivo. From the text: 30 HD mice were obtained from the Jackson Laboratory, Bar Harbor, Me. The group consists of a 15 hemizygous female strain #2810 and 15 hemizygous males strain #2810 (containing the transgene HDexon 1+159-161 CAG repeat units). These mice were grouped as follows: • All mice received ear clips as identification, noting hair color. • 1-15 were males and 16-29 were females mouse #30 arrived dead. • Male mice: 1-4 were control animals receiving no treatment, 5,6,7,11 were grouped as E1 8, 9, 10 and 12 were grouped as E2. […] 28 and 29 were grouped as T2, receiving 100 ug/ml testosterone.
Body Weight: All animals were weighed on a scale weekly throughout the study. All weights were recorded.

Data set [2] shares this test system. The data set is described as follows: Brain weight at week 12 of treated HD transgenic mice. Format: in vivo. As to conditions: for Brain weight at week 12: single animals. From the text: 30 HD mice were obtained from the Jackson Laboratory, Bar Harbor, Me. The group consists of a 15 hemizygous female strain #2810 and 15 hemizygous males strain #2810 (containing the transgene HDexon 1+159-161 CAG repeat units). These mice were grouped as follows: • All mice received ear clips as identification, noting hair color. • 1-15 […] receiving no treatment, […], 9, 10 and 12 were grouped as E2. […] 20, 21, 22, 26 were grouped as E3, 23, 24, 25, 27 were grouped as E4. 28 and 29 were grouped as T2, receiving 100 ug/ml testosterone.
After euthanized, all brains of all mice were surgically removed and placed in a solution of formaldehyde and weighed on a scale. The weights were recorded.

The test system is the same in data set [3]. The data set is described as follows: Beam walking (raised beam) of treated HD transgenic mice. Format: in vivo. As to conditions: for ability to transverse the ½ in beam in the allotted time / improvement over the course of the study (continued ability to cross the ½ in^2 beam after controls were unable): HD mice, 150 seconds allotted; for ability to transverse the ½ in beam in the allotted time: versus untreated control liter mates; for improvement over the course of the study (continued ability to cross the ½ in^2 beam after controls were unable): two weeks after control animals failed; for time after untreated liter mates were unable to perform the trained task, with retained cognitive decision making and motor function: HD transgenic mice, beam task. From the text: 30 HD mice were obtained from the Jackson Laboratory, Bar Harbor, Me. The group consists of a 15 hemizygous female strain #2810 and 15 hemizygous males strain #2810 (containing the transgene HDexon 1+159-161 CAG repeat units). These mice were grouped as follows: • All mice received ear clips as identification, noting hair color. • 1-15 were males and 16-29 were females mouse #30 arrived dead. • Male mice: 1-4 were control animals receiving no treatment, 5,6,7,11 were grouped as E1 8, 9, 10 and 12 were grouped as E2. 13, 14 and 15 were grouped as T1, receiving 100 ug/ml testosterone weekly. • Female mice: 16-19 were control animals receiving no treatment. 20, 21, 22, 26 were grouped as E3, 23, 24, 25, 27 were grouped as E4. 28 and 29 were grouped as T2, receiving 100 ug/ml testosterone.
Utilizing the raised beam, mice were assessed for their ability to transverse a graded series of narrow beams to reach a safety platform. The beams consisted of long strips of wood with a 12 mm or 5 mm square cross section. The beams were placed horizontally, 50 cm above each bench surface, with one end mounted on a narrow support and the other end attached to an enclosed box to which the animal could escape. Two inches of dense foam was placed under the test area to protect the animals from fall injury. Training took place in a 3 or 4 day period, where the mice were trained two to four times in a four day period using the 12 mm square beam. Once they were trained to walk the beam (i.e., traversing the 12 mm square beam in less than 20 seconds), they received two consecutive trails on each of the square beam and each of the round beams, in each case progressing from the widest to the narrowest beam. Mice were afforded 150 seconds to traverse each beam. The number of times the mice slipped off of the beam was recorded for each trial. The mean score was used for each trial.

Data set [4] can be described thus: Serum hormone level (ES/TT) in treated HD mice. As to conditions: subcutaneous injection as emulsion with Freund's incomplete adjuvant.
Experimental: Hormone tests of serum were performed to verify the blood levels of estradiol or testosterone. The mice (controls=no treatment) were tested against liter mates receiving either (E1 and E3 100 ug/ml weekly) or (E2 and E4 200 ug/ml injection weekly).
Blood specimens for estradiol assay using Elisa methodology was obtained during the study.
Stock solution of estradiol and testosterone were diluted with water and mixed with Freund's incomplete adjuvant. This was mixed continuously for 1 minute and either 100 ul (E1 and E3) or 200 ul (E2 and E4) were injected subcutaneously. […] Animals in the E1 and E3 groups were targeted to receive 100-300 pg/ml estrogen and groups E2 and E4 were targeted to receive 400-800 pg/ml of estrogen. Animals in T1 and T2 grouping were targeted to receive 100 pg/ml testosterone.
Data set [5] has as its system mutant form of huntingtin. The data set is described as follows: In vitro estradiol binding study, overall conclusion. As to conditions: conclusion from Table 2. As to the method: These pure proteins were then used in the following binding protocol. Oestradiol-6-(0-carboxymethyl)oximino-(2-[125I] iodohistamine was used as the estradiol source. Buffer B preferably comprises: 250 mM tris, 150 mM NaCl, and a Dextran Charcoal solution comprising 0.05% Dextran coated charcoal in buffer B (sigma Cat#6197). About 0.5 ml of buffer B was preferably used per reaction. A total of 5 ml of Buffer B was aliquoted into a glass borosilicate tube (Fisher Cat#14-961-26) and 10 μL of Oestradiol (1125) was added containing approximately 2,000,000 cpm. About 0.5 ml of this solution was then distributed into eight labeled glass tubes (cat #14-961-260). The entire tube #1's 500 μL was counted. Tube #2 through #8 were treated in the following manner:
Tubes #2-#8 were incubated for 1 hour at room temperature, placed on ice for ten minutes, and 200 μL of the Dextran charcoal solution in buffer B was added. These tubes were then placed on ice ten minutes and then centrifuged 15 minutes at 2200 rpm in a Sorvall RC-3 refrigerated centrifuge with swinging bucket rotor (Sorvall HL-8) at 4 degrees. The entire 700 μL supernatant was removed and counted using Genesys multi-well gamma counter (Laboratories Technology, Inc.). The results are summarized below: […]

[6] abbreviates: female HD mice, group E1, 100 ul ES dose weekly, target blood level 100-300 pg/ml.
[7] abbreviates: female HD mice, group E1, 100 ul ES dose weekly.
The mark [8] stands for this setting: female HD mice, group E2, 200 ul ES dose weekly, target blood level 400-800 pg/ml.
Setting [9] is: female HD mice, group E2, 200 ul ES dose weekly.
[10] abbreviates: male HD mice, group E3, 100 ul ES dose weekly, target blood level 100-300 pg/ml.
[11] abbreviates: male HD mice, group E3, 100 ul ES dose weekly.
[12] abbreviates: male HD mice, group E4, 200 ul ES dose weekly, target blood level 400-800 pg/ml.
Where [13] appears, read: male HD mice, group E4, 200 ul ES dose weekly.
Where [14] appears, read: female HD mice, group T1, 100 ul T dose weekly, target blood level 50-100 pg/ml.
[15] abbreviates: female HD mice, group T1, 100 ul T dose weekly.
[16] abbreviates: male HD mice, group T2, 100 ul T dose weekly, target blood level 50-100 pg/ml.
The mark [17] stands for this setting: male HD mice, group T2, 100 ul T dose weekly.

Several values for one entry are separate records, joined by “and”; a condition that tells them apart may be missing. Equal entries are not always repeated. Entries after “also recorded” stand apart in the source; their conditions may differ.

For `CC12CCC3c4ccc(O)cc4CCC3C1CC[C@@H]2OC(=O)CCC1CCCC1` (stereo partly drawn) [estradiol cypionate, estradiol 17-cyclopentanepropionate], the “Last wt Week 12” value in data set [1] (setting [6]) is 21.7 g and 16.9 g and 18.9 g and 18.2 g; in data set [1] (setting [8]) it was 20.5 g and 17.6 g and 13.5 g and 20.7 g; in data set [1] (setting [10]) it was 19.6 g and 22.6 g and 21.7 g and 23.5 g; in data set [1] (setting [12]), 22.9 g and 19.6 g and 20.2 g and 19.4 g. Moreover, the “Peak wt Weeks 8/9” value is 24.0 g and 19.9 g and 21.2 g and 25.0 g in data set [1] (setting [6]); 21.5 g and 21.8 g and 19.8 g and 22.5 g in data set [1] (setting [8]); 26.2 g and 26.7 g and 24.8 g and 26.4 g in data set [1] (setting [10]); 26.2 g and 24.6 g and 23.7 g and 22.1 g in data set [1] (setting [12]). The Average % change is 15.5% in data set [1] (female HD mice, group E1, 100 ul ES dose weekly, controls 21.7%); 15.7% in data set [1] (female HD mice, group E2, 200 ul ES dose weekly, controls 21.7%); 15.9% in data set [1] (male HD mice, group E3, 100 ul ES dose weekly, controls 27.2%); 14.9% in data set [1] (male HD mice, group E4, 200 ul ES dose weekly, controls 27.2%). Moreover, the “% change in weight” value in data set [1] (setting [7]) was −9.0% and −15.0% and −10.8% and −27.2%; in data set [1] (setting [9]) it was −4.6% and −19.2% and −31.0% and −8.0%. Besides, the “Change in Grams” value is −2.3 g (2×) and −3.0 g and −6.8 g in data set [1] (setting [7]); -1.0 g and -4.2 g and -6.3 g and -1.8 g in data set [1] (setting [9]); -6.6 g and -4.1 g and -3.1 g and -2.9 g in data set [1] (setting [11]); -3.3 g and -5.0 g and -3.5 g and -2.7 g in data set [1] (setting [13]). Moreover, the “% change” value was −25.0% and −15.3% and −12.5% and −10.9% in data set [1] (setting [11]); −12.5% and −20.3% and −14.7% and −12.2% in data set [1] (setting [13]). The “Brain weight at week 12” value in data set [2] (setting [7]) is 0.33 g and 0.36 g and 0.34 g and 0.30 g; in data set [2] (setting [9]), 0.33 g and 0.37 g (2×); in data set [2] (setting [11]), 0.37 g (2×) and 0.40 g (2×); in data set [2] (setting [13]), 0.39 g and 0.34 g and 0.35 g. The “increase in brain weight” value in data set [2] (on average, lower level (100-300 Pg/ml) of estrogen treatment versus untreated) is reported as not above 10%. Besides, in data set [3], the “ability to transverse the ½ in beam in the allotted time” value is “significant improvement; also recorded: able to complete the traversing of the beam in the allotted time; also recorded: significant increase in their ability to cross the beam within the time allotment”. Further, the “improvement over the course of the study (continued ability to cross the ½ in^2 beam after controls were unable)” value in data set [3] was 16.6%. Also, the “time after untreated liter mates were unable to perform the trained task, with retained cognitive decision making and motor function” value in data set [3] turned out to be 14 days. For the same molecule, the release after injection entry in data set [4] is recorded as “continuous over six days”.
Take `C[C@]12CC[C@@H]3c4ccc(O)cc4CC[C@H]3[C@@H]1CC[C@@H]2O` [estradiol, 1,3,5(10)-estratriene-3,17beta-diol]: the “affinity for mutant huntingtin” value in data set [5] is “an affinity for estradiol has been demonstrated”.
Consider `CC12CCC(=O)C=C1CCC1[C@@H]2CCC2(C)[C@@H](OC(=O)CCC3CCCC3)CC[C@@H]12` (stereo partly drawn) [testosterone cypionate, androst-4-en-3-one,17-(3-cyclopentyl-1-oxopropoxy)-, (17β)-], for which, in data set [1] (setting [14]), the “Last wt Week 12” value was 17.4 g and 14.5 g; the “Peak wt Weeks 8/9” value was 27.6 g and 21.6 g. In addition, the Average % change in data set [1] (female HD mice, group T1, 100 ul T dose weekly, controls 21.7%) was 34.8%. Besides, in data set [1] (setting [15]), the “% change in weight” value was −36.9% and −32.8%; the “Change in Grams” value is -10.2 g and -7.1 g. Moreover, in data set [1] (setting [16]), the “Last wt Week 12” value is 17.1 g and 25.1 g and 19.0 g; the “Peak wt Weeks 8/9” value is 23.4 g and 28.0 g and 27.0 g. Besides, the “Average % change” value in data set [1] (male HD mice, group T2, 100 ul T dose weekly, controls 27.2%) was 22.2%. Also, in data set [1] (setting [17]), the “% change” value was −26.9% and −10.3% and −29.6%; the “Change in Grams” value was -6.3 g and -2.9 g and -8.0 g. Also, the “Brain weight at week 12” value in data set [2] (setting [15]) turned out to be 0.31 g. Besides, the “Brain weight at week 12” value in data set [2] (setting [17]) is 0.31 g and 0.37 g and 0.33 g. In addition, in data set [3], the “ability to transverse the ½ in beam in the allotted time” value is “significant improvement”; the “improvement over the course of the study (continued ability to cross the ½ in^2 beam after controls were unable)” value is 16.6%; the “time after untreated liter mates were unable to perform the trained task, with retained cognitive decision making and motor function” value is on record as 14 days.
